± gives the expanded uncertainty stated by the source.
Key:
[1] = 101 kPa, Liquid; for speed of sound: Linear variable-path acoustic interferometer
[2] = xn = mol fraction of the nth substance listed; conditions: 101 kPa, Liquid, x2 = 0; for speed of sound: Linear variable-path acoustic interferometer

SMILES	mass density ([1]; 298.15 K)	viscosity ([1]; 298.15 K)	speed of sound ([1]; 298.15 K)	mass density ([1]; 308.15 K)	viscosity ([1]; 308.15 K)	speed of sound ([1]; 308.15 K)	speed of sound ([2]; 298.15 K)	mass density ([2]; 298.15 K)	viscosity ([2]; 298.15 K)	speed of sound ([2]; 308.15 K)	mass density ([2]; 308.15 K)	viscosity ([2]; 308.15 K)
CCCCO [butan-1-ol]	806.33 ± 0.5 kg/m3	2.585 ± 0.034 mPa·s	1235 ± 3 m/s	798.38 ± 0.54 kg/m3	2.012 ± 0.028 mPa·s	1210 ± 3 m/s						
CCO [ethanol] + ClC(Cl)Cl							1144 ± 3 m/s	784.32 ± 0.39 kg/m3	1.084 ± 0.014 mPa·s	1111 ± 3 m/s	775.51 ± 0.43 kg/m3	0.902 ± 0.013 mPa·s
ClC(Cl)Cl [trichloromethane]	1478.82 ± 1.2 kg/m3	0.556 ± 0.01 mPa·s	985 ± 3 m/s	1459.45 ± 1.2 kg/m3	0.513 ± 0.009 mPa·s	950 ± 2 m/s						
CCCO [propan-1-ol] + ClC(Cl)Cl							1212 ± 3 m/s	800.82 ± 0.4 kg/m3	1.95 ± 0.024 mPa·s	1177 ± 3 m/s	792.51 ± 0.44 kg/m3	1.533 ± 0.02 mPa·s
CCO [ethanol]	784.32 ± 0.39 kg/m3	1.084 ± 0.014 mPa·s	1144 ± 3 m/s	775.51 ± 0.43 kg/m3	0.902 ± 0.013 mPa·s	1111 ± 3 m/s						
CO [methanol] + ClC(Cl)Cl							1109 ± 3 m/s	786.3 ± 0.39 kg/m3	0.551 ± 0.009 mPa·s	1076 ± 3 m/s	776.6 ± 0.43 kg/m3	0.493 ± 0.009 mPa·s
CCCO [propan-1-ol]	800.82 ± 0.4 kg/m3	1.95 ± 0.024 mPa·s	1212 ± 3 m/s	792.51 ± 0.44 kg/m3	1.533 ± 0.02 mPa·s	1177 ± 3 m/s						
CO [methanol]	786.3 ± 0.39 kg/m3	0.551 ± 0.009 mPa·s	1109 ± 3 m/s	776.6 ± 0.43 kg/m3	0.493 ± 0.009 mPa·s	1076 ± 3 m/s						
CCCCO [butan-1-ol] + ClC(Cl)Cl							1235 ± 3 m/s	806.33 ± 0.5 kg/m3	2.585 ± 0.034 mPa·s	1210 ± 3 m/s	798.38 ± 0.54 kg/m3	2.012 ± 0.028 mPa·s

— the NIST ThermoML archive (doi:10.1016/j.jct.2006.03.010)
